{
  "source": "patent US20130337579A1",
  "about": "“Methods for Determining Protein Ligand Binding” (UNIVERSITY OF MARYLAND, COLLEGE PARK, priority 2010, published 2013)",
  "key": {"[1]": {"system": "whole-cell lysates of P. aeruginosa strains", "test": "DRaCALA analysis of cdiGMP binding by whole-cell lysates of P. aeruginosa strains"}, "[2]": {"target": "T1, P. aeruginosa Alg44PilZ (His-MBP-Alg44PilZ) (Pseudomonas aeruginosa, UniProt Q9HY69)", "T1 construct": "His-MBP-Alg44PilZ was varied from 100 μM to 6 nM; made in house; host or cells: E. coli BL21(DE3)", "T1 sequence (Q9HY69 16-116)": "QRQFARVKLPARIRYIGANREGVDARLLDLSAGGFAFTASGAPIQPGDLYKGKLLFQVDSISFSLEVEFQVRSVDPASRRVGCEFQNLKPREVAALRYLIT", "test": "biochemical", "format": "binding", "from_the_text": "DRaCALA exploits the ability of nitrocellulose membranes to preferentially sequester proteins over small molecule ligands. When a mixture of protein and radiolabeled ligand is spotted onto a dry nitrocellulose membrane, protein and bound ligand are immobilized at the site of contact while free ligand is mobilized by capillary action with the liquid phase (FIG. 1A). DRaCALA is a rapid assay, as the capillary action can be completed in less than 5 seconds. […] Because capillary action distributes the unbound ligand throughout the mobile phase, the calculation for the fraction bound (FB) can be corrected for this background (see below for edge effects at the solvent front and annulation of the protein). Therefore, FB is defined by the equation in FIG. 1B, where Iinner is the intensity of signal in the area with protein (inner circle) and Itotal is the total signal of the entire sample (outer circle). The Iinner signal consists of both ligand bound to protein and unbound ligand that has not mobilized beyond the area of the inner circle, which we define as Ibackground. Ibackground can be calculated by subtracting the signal intensity of the Iinner from the total ligand Itotal and adjusting for the relative areas of the inner (Ainner) and outer circles (Atotal) (FIG. 1B).\nRadiolabeled ligands were incubated with each of the proteins and the mixtures were spotted on nitrocellulose. After spreading by capillary action, membranes were dried and quantitated by phosphorimager. […] The specificity of Alg44PilZ binding to cdiGMP was further tested by competition with excess unlabeled nucleotides (400-fold molar excess relative to the Alg44PilZ protein).\nKd can be measured by altering either the protein or ligand concentrations in titration experiments; since DRaCALA detects only the ligand mobility, ligand concentrations can be always held constant. […] Since the assay is completed in less than 5 seconds, DRaCALA can also be used to determine the koff for those protein-ligand complexes with slower off rates. koff was determined for cdiGMP and Alg44PilZ by spotting at the indicated time points after the addition of 1 mM unlabeled cdiGMP to a pre-incubated mixture of Alg44PilZ and ^32P-cdiGMP (FIG. 3C). […] Both edge and annulation effects are explained in FIG. 8. The edge effect is due to evaporation of the solvent during the time of the experiment, and is dependent on the humidity of the local environment around the nitrocellulose support. The evaporation results in a smaller total area (Atotal observed in FIG. 8A) and leads to an increased value in the calculated Ibackground. As a secondary correction for the edge effect, the fraction bound determined for spotted ligand in the absence of protein can be subtracted from all samples in parallel (FIG. 8B)."}, "[3]": {"system": "lysates from various organisms or tissues", "test": "DRaCALA analysis of cdiGMP binding by lysates from various organisms or tissues"}, "[4]": {"system": "PelD", "test": "DRaCALA of whole cell lysates of E. coli BL21(DE3) expressing PelD", "format": "binding, P. aeruginosa", "conditions": "PelD with or without MBP tag", "experimental": "FIG. 10. Binding of cdiGMP to whole cell lysates expressing soluble or insoluble cdiGMP binding proteins. (A) BL21(DE3) cells expressing the indicated proteins were analyzed by PAGE and coomassie staining of whole cell (W) and soluble (S) fractions. Arrows indicate the overexpressed protein of the correct molecular weight in whole cell lysates. Molecular weights of proteins are indicated on the left in kilodaltons. (B) Spots of BL21 cells overexpressing the indicated proteins were assayed for cdiGMP binding by DRaCALA. (C) Quantification of the data shown in (B). (D) Binding of ^32P-cdiGMP to various dilutions of lysates of BL21(DE3) cells expressing the indicated proteins.\nA major limitation of most biochemical assays is the requirement for purified protein. We asked whether DRaCALA could be applied to crude extracts to overcome this limitation. Alg44PilZ binding to cdiGMP requires a number of conserved residues, including R17, R21, D44 and S46, in the PilZ domain of the protein. E. coli BL21(DE3) expressing Alg44PilZ and variants with R21A, D44A, S46A, and R17A/R21A substitutions were lysed and tested for binding to cdiGMP using DRaCALA. […] A significant difference between the bound fractions for cdiGMP or GTP competition experiments was detected for the wild-type Alg44PilZ, but not for the PilZ domain mutants (FIGS. 4A and 4B). […]"}, "[5]": {"target": "T2, Alg44PilZ (Pseudomonas aeruginosa, UniProt Q9HY69)", "T2 construct": "Previous studies of the dissociation rate of cdiGMP from Alg44PilZ", "T2 sequence (Q9HY69 16-116)": "as above", "conditions": "estimated by filter binding, previous studies; cited from earlier work"}},
  "data": [
    {"molecule": "Nc1nc2c(ncn2[C@@H]2O[C@@H]3CO[P@](=O)(O)O[C@H]4[C@@H](O)[C@H](n5cnc6c(=O)[nH]c(N)nc65)O[C@@H]4CO[P@](=O)(O)O[C@H]3[C@H]2O)c(=O)[nH]1", "note": "[cdiGMP, cyclic-di-GMP]", "values": [
      {"measurement": "BSp", "setting": "[1]; PA14 overexpressing diguanylate cyclase WspR", "value": 1.19},
      {"measurement": "BSp", "setting": "[1]; PA14 overexpressing phosphodiesterase RocR", "value": 3.51},
      {"measurement": "BSp", "setting": "[1]; PA14ΔpelD overexpressing RocR", "value": 2.70},
      {"measurement": "average BSp of strain groups isolated from different sources", "setting": "[1]; all groups", "value": "greater than 1.48"},
      {"measurement": "Average Bc", "setting": "[1]; average over all P. aeruginosa lysates of the table", "value": 0.185},
      {"measurement": "BSp", "setting": "[1]; wild-type PA14 extract", "value": 1.27},
      {"measurement": "Kd", "setting": "[2]", "value": 1.6, "unit": "µM"},
      {"measurement": "koff", "setting": "[2]", "value": "0.017 ± 0.002", "unit": "s⁻¹"},
      {"measurement": "binding to Alg44PilZ (sequestration of radiolabel signal)", "setting": "[2]; 20 μM purified protein, 500 nM 14C-cAMP, 4 nM 32P-ATP or 4 nM 32P-cdiGMP", "value": "bound"},
      {"measurement": "time until 32P-cdiGMP binding completely competed away", "setting": "[2]; 1 mM unlabeled cdiGMP", "value": "≤ 90", "unit": "s"},
      {"measurement": "half-life (t1/2)", "setting": "[2]; corresponding to koff, DRaCALA", "value": "0.593 ± 0.178", "unit": "min"},
      {"measurement": "BC (non-specific binding)", "setting": "[3]; mammalian tissue extracts from rodent and human cell lines", "value": "> 0.233"},
      {"measurement": "BSp", "setting": "[3]; whole cell extracts of protozoa, fungi and nematodes", "value": "below 1.17"},
      {"measurement": "specific sequestration by whole cell extracts with soluble or insoluble protein", "setting": "[4]", "value": "specifically sequester"},
      {"measurement": "half-life of the complex", "setting": "[5]", "value": 5, "unit": "min"}
    ]}
  ]
}
